Reference: ChEMBL document CHEMBL1201862, “PubChem BioAssay data set” (2004)
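All cell lines were grown in 96-well plates and treated with compound for 48 hours. Here, GI50 denotes the concentration required for 50% inhibition of growth.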 Active and inactive are the calls of the source. Rule as the data show it: active = GI50 up to about 1.1 µM and inactive = higher.

Legend:
Test in all cases: DTP human tumour cell line panel, 48 h
LOX IMVI = system: LOX IMVI
A498 = system: A498
COLO 205 = system: COLO 205
SF-268 = system: SF-268
OVCAR-8 = system: OVCAR-8
UO-31 = system: UO-31
SNB-19 = system: SNB-19
HL-60 = system: HL-60
K562 = system: K562
SR = system: SR
TK-10 = system: TK-10
OVCAR-4 = system: OVCAR-4
NCI-H226 = system: NCI-H226
NCI-H23 = system: NCI-H23
Malme-3M = system: Malme-3M
NCI-H522 = system: NCI-H522
UACC-62 = system: UACC-62

## Cc1nc2cc(N)c(F)cc2[nH]1
LOX IMVI
  GI50: > 100 µM (inactive)
A498
  GI50: > 100 µM (inactive)
COLO 205
  GI50: > 100 µM (inactive)
SF-268
  GI50: > 100 µM (inactive)
OVCAR-8
  GI50: > 100 µM (inactive)
UO-31
  GI50: > 100 µM (inactive)
SNB-19
  GI50: > 100 µM (inactive)
HL-60
  GI50: > 100 µM (inactive)
K562
  GI50: > 100 µM (inactive)
SR
  GI50: > 100 µM (inactive)
TK-10
  GI50: > 100 µM (inactive)
OVCAR-4
  GI50: > 100 µM (inactive)
NCI-H226
  GI50: > 100 µM (inactive)
NCI-H23
  GI50: > 100 µM (inactive)
Malme-3M
  GI50: > 100 µM (inactive)
NCI-H522
  GI50: > 100 µM (inactive)
UACC-62
  GI50: > 100 µM (inactive)

## O=C1C=C(O)C(=Cc2c(O)cc(O)cc2O)C(O)=C1
LOX IMVI
  GI50: > 100 µM (inactive)
A498
  GI50: > 100 µM (inactive)
COLO 205
  GI50: > 100 µM (inactive)
SF-268
  GI50: > 100 µM (inactive)
OVCAR-8
  GI50: > 100 µM (inactive)
UO-31
  GI50: > 100 µM (inactive)
SNB-19
  GI50: > 100 µM (inactive)
HL-60
  GI50: > 100 µM (inactive)
K562
  GI50: > 100 µM (inactive)
SR
  GI50: > 100 µM (inactive)
TK-10
  GI50: > 100 µM (inactive)
OVCAR-4
  GI50: > 100 µM (inactive)
NCI-H226
  GI50: > 100 µM (inactive)
NCI-H23
  GI50: > 100 µM (inactive)
Malme-3M
  GI50: > 100 µM (inactive)
NCI-H522
  GI50: > 100 µM (inactive)
UACC-62
  GI50: > 100 µM (inactive)

## O=C(CCC(=O)Nc1ccc(Cl)cc1)CC(=O)c1ccc2ccccc2c1
LOX IMVI
  GI50: > 100 µM (inactive)
A498
  GI50: > 100 µM (inactive)
COLO 205
  GI50: > 100 µM (inactive)
SF-268
  GI50: > 100 µM (inactive)
OVCAR-8
  GI50: > 100 µM (inactive)
UO-31
  GI50: > 100 µM (inactive)
SNB-19
  GI50: > 100 µM (inactive)
HL-60
  GI50: > 100 µM (inactive)
K562
  GI50: > 100 µM (inactive)
SR
  GI50: > 100 µM (inactive)
TK-10
  GI50: > 100 µM (inactive)
OVCAR-4
  GI50: > 100 µM (inactive)
NCI-H226
  GI50: > 100 µM (inactive)
NCI-H23
  GI50: > 100 µM (inactive)
Malme-3M
  GI50: > 100 µM (inactive)
NCI-H522
  GI50: > 100 µM (inactive)
UACC-62
  GI50: 32.7 µM (inactive)

## CC#COP(=O)(OCC)OCC
LOX IMVI
  GI50: > 100 µM (inactive)
A498
  GI50: 39.5 µM (inactive)
COLO 205
  GI50: > 100 µM (inactive)
SF-268
  GI50: > 100 µM (inactive)
OVCAR-8
  GI50: > 100 µM (inactive)
UO-31
  GI50: > 100 µM (inactive)
SNB-19
  GI50: > 100 µM (inactive)
HL-60
  GI50: 17.7 µM (inactive)
K562
  GI50: > 100 µM (inactive)
SR
  GI50: 64.6 µM (inactive)
TK-10
  GI50: > 100 µM (inactive)
OVCAR-4
  GI50: > 100 µM (inactive)
NCI-H226
  GI50: 23.9 µM (inactive)
NCI-H23
  GI50: > 100 µM (inactive)
Malme-3M
  GI50: > 100 µM (inactive)
NCI-H522
  GI50: > 100 µM (inactive)
UACC-62
  GI50: > 100 µM (inactive)

## C#CCNC(=O)NCCCC(NC(C)=O)C(=O)NCc1ccccc1 (configuration not stated)
LOX IMVI
  GI50: > 100 µM (inactive)
A498
  GI50: > 100 µM (inactive)
COLO 205
  GI50: > 100 µM (inactive)
SF-268
  GI50: > 100 µM (inactive)
OVCAR-8
  GI50: > 100 µM (inactive)
UO-31
  GI50: > 100 µM (inactive)
SNB-19
  GI50: > 100 µM (inactive)
HL-60
  GI50: > 100 µM (inactive)
K562
  GI50: > 100 µM (inactive)
SR
  GI50: > 100 µM (inactive)
TK-10
  GI50: > 100 µM (inactive)
OVCAR-4
  GI50: > 100 µM (inactive)
NCI-H226
  GI50: > 100 µM (inactive)
NCI-H23
  GI50: > 100 µM (inactive)
Malme-3M
  GI50: > 100 µM (inactive)
NCI-H522
  GI50: > 100 µM (inactive)
UACC-62
  GI50: > 100 µM (inactive)

## COc1cc2c(c(OC)c1OC)-c1ccc(SC)c(=O)cc1[C@@H](NCc1ccc(F)cc1)CC2
LOX IMVI
  GI50: < 0.0075 µM (active)
A498
  GI50: < 0.0075 µM (active)
COLO 205
  GI50: < 0.0075 µM (active)
SF-268
  GI50: < 0.0075 µM (active)
OVCAR-8
  GI50: < 0.0075 µM (active)
UO-31
  GI50: 1.03 µM (active)
SNB-19
  GI50: < 0.0075 µM (active)
HL-60
  GI50: 0.1 µM (active)
K562
  GI50: < 0.0075 µM (active)
SR
  GI50: < 0.0075 µM (active)
TK-10
  GI50: 12.3 µM (inactive)
OVCAR-4
  GI50: 11.6 µM (inactive)
NCI-H226
  GI50: < 0.0075 µM (active)
NCI-H23
  GI50: < 0.0075 µM (active)
Malme-3M
  GI50: < 0.0075 µM (active)
NCI-H522
  GI50: < 0.0075 µM (active)
UACC-62
  GI50: < 0.0075 µM (active)
